Active and inactive are the calls of the source. The calls are words filed in the database; no cut-off is given here.
What was measured:
Dihydrofolate reductase = molecular target: T1, Dihydrofolate reductase (Homo sapiens, UniProt P00374); assay: Inhibition of human DHFR assessed as conversion of dihydrofolic acid to tetrahydrfolic acid by enzyme immunoassay in presence of NADPH
T1 sequence (P00374 whole entry): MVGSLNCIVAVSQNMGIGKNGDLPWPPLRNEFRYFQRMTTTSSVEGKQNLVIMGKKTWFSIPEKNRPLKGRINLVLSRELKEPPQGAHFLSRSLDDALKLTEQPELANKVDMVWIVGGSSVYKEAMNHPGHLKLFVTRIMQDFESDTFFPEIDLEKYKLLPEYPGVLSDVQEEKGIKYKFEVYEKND

T47D = conditions: Homo sapiens, 10^-5 M
Description: Cytotoxicity against human T47D cells assessed as tumor growth inhibition at 10^-5 M after 48 hrs by sulforhodamine B assay

UACC-257 = conditions: Homo sapiens, 10^-5 M
Description: Cytotoxicity against human UACC257 cells assessed as tumor growth inhibition at 10^-5 M after 48 hrs by sulforhodamine B assay

K562 = conditions: Homo sapiens, 10^-5 M
Description: Cytotoxicity against human K562 cells assessed as tumor growth inhibition at 10^-5 M after 48 hrs by sulforhodamine B assay

SF-295 = conditions: Homo sapiens, 10^-5 M
Description: Cytotoxicity against human SF295 cells assessed as tumor growth inhibition at 10^-5 M after 48 hrs by sulforhodamine B assay

HT-29 = conditions: Homo sapiens, 10^-5 M
Description: Cytotoxicity against human HT-29 cells assessed as tumor growth inhibition at 10^-5 M after 48 hrs by sulforhodamine B assay

HCT-116 = conditions: Homo sapiens, 10^-5 M
Description: Cytotoxicity against human HCT116 cells assessed as tumor growth inhibition at 10^-5 M after 48 hrs by sulforhodamine B assay

SK-OV-3 = conditions: Homo sapiens, 10^-5 M
Description: Cytotoxicity against human SKOV3 cells assessed as tumor growth inhibition at 10^-5 M after 48 hrs by sulforhodamine B assay

M14 = conditions: Homo sapiens, 10^-5 M
Description: Cytotoxicity against human M14 cells assessed as tumor growth inhibition at 10^-5 M after 48 hrs by sulforhodamine B assay

ACHN = conditions: Homo sapiens, 10^-5 M
Description: Cytotoxicity against human ACHN cells assessed as tumor growth inhibition at 10^-5 M after 48 hrs by sulforhodamine B assay

HCT-15 = conditions: Homo sapiens, 10^-5 M
Description: Cytotoxicity against human HCT15 cells assessed as tumor growth inhibition at 10^-5 M after 48 hrs by sulforhodamine B assay

NCI-H226 = conditions: Homo sapiens, 10^-5 M
Description: Cytotoxicity against human NCI-H226 cells assessed as tumor growth inhibition at 10^-5 M after 48 hrs by sulforhodamine B assay

RXF 393 = conditions: Homo sapiens, 10^-5 M
Description: Cytotoxicity against human RXF393 cells assessed as tumor growth inhibition at 10^-5 M after 48 hrs by sulforhodamine B assay

NCI-H460 = conditions: Homo sapiens, 10^-5 M
Description: Cytotoxicity against human NCI-H460 cells assessed as tumor growth inhibition at 10^-5 M after 48 hrs by sulforhodamine B assay

Malme-3M = conditions: Homo sapiens, 10^-5 M
Description: Cytotoxicity against human MALME-3M cells assessed as tumor growth inhibition at 10^-5 M after 48 hrs by sulforhodamine B assay

MDA-MB-468 = conditions: Homo sapiens, 10^-5 M
Description: Cytotoxicity against human MDA-MB-468 cells assessed as tumor growth inhibition at 10^-5 M after 48 hrs by sulforhodamine B assay

SNB-19 = conditions: Homo sapiens, 10^-5 M
Description: Cytotoxicity against human SNB19 cells assessed as tumor growth inhibition at 10^-5 M after 48 hrs by sulforhodamine B assay

RPMI-8226 = conditions: Homo sapiens, 10^-5 M
Description: Cytotoxicity against human RPMI8226 cells assessed as tumor growth inhibition at 10^-5 M after 48 hrs by sulforhodamine B assay

PC-3 = conditions: Homo sapiens, 10^-5 M
Description: Cytotoxicity against human PC3 cells assessed as tumor growth inhibition at 10^-5 M after 48 hrs by sulforhodamine B assay

A498 = conditions: Homo sapiens, 10^-5 M
Description: Cytotoxicity against human A498 cells assessed as tumor growth inhibition at 10^-5 M after 48 hrs by sulforhodamine B assay

SW-620 = conditions: Homo sapiens, 10^-5 M
Description: Cytotoxicity against human SW620 cells assessed as tumor growth inhibition at 10^-5 M after 48 hrs by sulforhodamine B assay

786-0 = conditions: Homo sapiens, 10^-5 M
Description: Cytotoxicity against human 786-0 cells assessed as tumor growth inhibition at 10^-5 M after 48 hrs by sulforhodamine B assay

SR = conditions: Homo sapiens, 10^-5 M
Description: Cytotoxicity against human SR cells assessed as tumor growth inhibition at 10^-5 M after 48 hrs by sulforhodamine B assay

COLO 205 = conditions: Homo sapiens, 10^-5 M
Description: Cytotoxicity against human COLO205 cells assessed as tumor growth inhibition at 10^-5 M after 48 hrs by sulforhodamine B assay

CAKI-1 = conditions: Homo sapiens, 10^-5 M
Description: Cytotoxicity against human Caki1 cells assessed as tumor growth inhibition at 10^-5 M after 48 hrs by sulforhodamine B assay

HL-60(TB) = conditions: Homo sapiens, 10^-5 M
Description: Cytotoxicity against human HL-60(TB) cells assessed as tumor growth inhibition at 10^-5 M after 48 hrs by sulforhodamine B assay

LOX IMVI = conditions: Homo sapiens, 10^-5 M
Description: Cytotoxicity against human LOXIMVI cells assessed as tumor growth inhibition at 10^-5 M after 48 hrs by sulforhodamine B assay

NCI/ADR-RES = conditions: Homo sapiens, 10^-5 M
Description: Cytotoxicity against human NCI-ADR-RES cells assessed as tumor growth inhibition at 10^-5 M after 48 hrs by sulforhodamine B assay

SK-MEL-28 = conditions: Homo sapiens, 10^-5 M
Description: Cytotoxicity against human SK-MEL-28 cells assessed as tumor growth inhibition at 10^-5 M after 48 hrs by sulforhodamine B assay

SN12C = conditions: Homo sapiens, 10^-5 M
Description: Cytotoxicity against human SN12C cells assessed as tumor growth inhibition at 10^-5 M after 48 hrs by sulforhodamine B assay

KM12 = conditions: Homo sapiens, 10^-5 M
Description: Cytotoxicity against human KM12 cells assessed as tumor growth inhibition at 10^-5 M after 48 hrs by sulforhodamine B assay

SF-268 = conditions: Homo sapiens, 10^-5 M
Description: Cytotoxicity against human SF268 cells assessed as tumor growth inhibition at 10^-5 M after 48 hrs by sulforhodamine B assay

NCI-H23 = conditions: Homo sapiens, 10^-5 M
Description: Cytotoxicity against human NCI-H23 cells assessed as tumor growth inhibition at 10^-5 M after 48 hrs by sulforhodamine B assay

MDA-MB-231 = conditions: Homo sapiens, 10^-5 M
Description: Cytotoxicity against human MDA-MB-231 cells assessed as tumor growth inhibition at 10^-5 M after 48 hrs by sulforhodamine B assay

SK-MEL-2 = conditions: Homo sapiens, 10^-5 M
Description: Cytotoxicity against human SK-MEL-2 cells assessed as tumor growth inhibition at 10^-5 M after 48 hrs by sulforhodamine B assay

EKVX = conditions: Homo sapiens, 10^-5 M
Description: Cytotoxicity against human EKVX cells assessed as tumor growth inhibition at 10^-5 M after 48 hrs by sulforhodamine B assay

TK-10 = conditions: Homo sapiens, 10^-5 M
Description: Cytotoxicity against human TK10 cells assessed as tumor growth inhibition at 10^-5 M after 48 hrs by sulforhodamine B assay

SF-539 = conditions: Homo sapiens, 10^-5 M
Description: Cytotoxicity against human SF539 cells assessed as tumor growth inhibition at 10^-5 M after 48 hrs by sulforhodamine B assay

U-251 = conditions: Homo sapiens, 10^-5 M
Description: Cytotoxicity against human U251 cells assessed as tumor growth inhibition at 10^-5 M after 48 hrs by sulforhodamine B assay

Hs-578T = conditions: Homo sapiens, 10^-5 M
Description: Cytotoxicity against human Hs 578T cells assessed as tumor growth inhibition at 10^-5 M after 48 hrs by sulforhodamine B assay

SK-MEL-5 = conditions: Homo sapiens, 10^-5 M
Description: Cytotoxicity against human SK-MEL-5 cells assessed as tumor growth inhibition at 10^-5 M after 48 hrs by sulforhodamine B assay

NCI-H522 = conditions: Homo sapiens, 10^-5 M
Description: Cytotoxicity against human NCI-H522 cells assessed as tumor growth inhibition at 10^-5 M after 48 hrs by sulforhodamine B assay

UO-31 = conditions: Homo sapiens, 10^-5 M
Description: Cytotoxicity against human UO31 cells assessed as tumor growth inhibition at 10^-5 M after 48 hrs by sulforhodamine B assay

IGROV-1 = conditions: Homo sapiens, 10^-5 M
Description: Cytotoxicity against human IGROV1 cells assessed as tumor growth inhibition at 10^-5 M after 48 hrs by sulforhodamine B assay

OVCAR-3 = conditions: Homo sapiens, 10^-5 M
Description: Cytotoxicity against human OVCAR3 cells assessed as tumor growth inhibition at 10^-5 M after 48 hrs by sulforhodamine B assay

BT-549 = conditions: Homo sapiens, 10^-5 M
Description: Cytotoxicity against human BT549 cells assessed as tumor growth inhibition at 10^-5 M after 48 hrs by sulforhodamine B assay

OVCAR-5 = conditions: Homo sapiens, 10^-5 M
Description: Cytotoxicity against human OVCAR5 cells assessed as tumor growth inhibition at 10^-5 M after 48 hrs by sulforhodamine B assay

HOP-62 = conditions: Homo sapiens, 10^-5 M
Description: Cytotoxicity against human HOP62 cells assessed as tumor growth inhibition at 10^-5 M after 48 hrs by sulforhodamine B assay

SNB-75 = conditions: Homo sapiens, 10^-5 M
Description: Cytotoxicity against human SNB75 cells assessed as tumor growth inhibition at 10^-5 M after 48 hrs by sulforhodamine B assay

HCC 2998 = conditions: Homo sapiens, 10^-5 M
Description: Cytotoxicity against human HCC2998 cells assessed as tumor growth inhibition at 10^-5 M after 48 hrs by sulforhodamine B assay

A549 = conditions: Homo sapiens, 10^-5 M
Description: Cytotoxicity against human A549 cells assessed as tumor growth inhibition at 10^-5 M after 48 hrs by sulforhodamine B assay

OVCAR-8 = conditions: Homo sapiens, 10^-5 M
Description: Cytotoxicity against human OVCAR8 cells assessed as tumor growth inhibition at 10^-5 M after 48 hrs by sulforhodamine B assay

HOP-92 = conditions: Homo sapiens, 10^-5 M
Description: Cytotoxicity against human HOP92 cells assessed as tumor growth inhibition at 10^-5 M after 48 hrs by sulforhodamine B assay

OVCAR-4 = conditions: Homo sapiens, 10'-5 M
Description: Cytotoxicity against human OVCAR4 cells assessed as tumor growth inhibition at 10^-5 M after 48 hrs by sulforhodamine B assay

MOLT-4 = conditions: Homo sapiens, 10^-5 M
Description: Cytotoxicity against human MOLT4 cells assessed as tumor growth inhibition at 10^-5 M after 48 hrs by sulforhodamine B assay

UACC-62 = conditions: Homo sapiens, 10^-5 M
Description: Cytotoxicity against human UACC62 cells assessed as tumor growth inhibition at 10^-5 M after 48 hrs by sulforhodamine B assay

MCF7 = conditions: Homo sapiens, 10^-5 M
Description: Cytotoxicity against human MCF7 cells assessed as tumor growth inhibition at 10^-5 M after 48 hrs by sulforhodamine B assay

MDA-MB-435 = conditions: Homo sapiens, 10^-5 M
Description: Cytotoxicity against human MDA-MB-435 cells assessed as tumor growth inhibition at 10^-5 M after 48 hrs by sulforhodamine B assay

CCRF-CEM = conditions: Homo sapiens, 10^-5 M
Description: Cytotoxicity against human CCRF-CEM cells assessed as tumor growth inhibition at 10^-5 M after 48 hrs by sulforhodamine B assay

DU-145 = conditions: Homo sapiens, 10^-5 M
Description: Cytotoxicity against human DU145 cells assessed as tumor growth inhibition at 10^-5 M after 48 hrs by sulforhodamine B assay

O=C1NC(=S)NC(=O)C1=Cc1cn(CC(O)Cn2cc(C=C3C(=O)NC(=S)NC3=O)c3ccccc32)c2ccccc12
IC50 (Dihydrofolate reductase): 7 µM

O=C1Nc2ccc([N+](=O)[O-])cc2/C1=C/c1cn(CC(O)Cn2cc(/C=C3\C(=O)Nc4ccc([N+](=O)[O-])cc43)c3ccccc32)c2ccccc12 (stereo unspecified)
IC50 (Dihydrofolate reductase): 0.7 µM

COc1cc(Cc2cnc(N)nc2N)cc(OC)c1OC
TGI (T47D): inactive
TGI (UACC-257): inactive
TGI (K562): inactive
TGI (SF-295): inactive
TGI (HT-29): inactive
TGI (HCT-116): inactive
TGI (SK-OV-3): inactive
TGI (M14): inactive
TGI (ACHN): inactive
TGI (HCT-15): inactive
TGI (NCI-H226): inactive
TGI (RXF 393): inactive
TGI (NCI-H460): inactive
TGI (Malme-3M): inactive
TGI (MDA-MB-468): inactive
TGI (SNB-19): inactive
TGI (RPMI-8226): inactive
TGI (PC-3): inactive
TGI (A498): inactive
TGI (SW-620): inactive
TGI (786-0): inactive
TGI (SR): inactive
TGI (COLO 205): inactive
TGI (CAKI-1): inactive
TGI (HL-60(TB)): inactive
TGI (LOX IMVI): inactive
TGI (NCI/ADR-RES): inactive
TGI (SK-MEL-28): inactive
TGI (SN12C): inactive
TGI (KM12): inactive
TGI (SF-268): inactive
TGI (NCI-H23): inactive
TGI (MDA-MB-231): inactive
TGI (SK-MEL-2): inactive
TGI (EKVX): inactive
TGI (TK-10): inactive
TGI (SF-539): inactive
TGI (U-251): inactive
TGI (Hs-578T): inactive
TGI (SK-MEL-5): inactive
TGI (NCI-H522): inactive
TGI (UO-31): inactive
TGI (IGROV-1): inactive
TGI (OVCAR-3): inactive
TGI (BT-549): inactive
TGI (OVCAR-5): inactive
TGI (HOP-62): inactive
TGI (SNB-75): inactive
TGI (HCC 2998): inactive
TGI (A549): inactive
TGI (OVCAR-8): inactive
TGI (HOP-92): inactive
TGI (OVCAR-4): inactive
TGI (MOLT-4): inactive
TGI (UACC-62): inactive
TGI (MCF7): inactive
TGI (MDA-MB-435): inactive
TGI (CCRF-CEM): inactive
TGI (DU-145): inactive
